Experiment: recombinant UMI read abundance after kanamycin selection (control-corrected) (log10(CPM+1)); higher = more efficient recombination; extreme values may be limits of the assay; sequences stand for … in AGTGCAGAGAAAATCGGCCAGTTTTCTCTGCCTGCAGTCCGCATGCCGTGGGACCCCTTGGGTTCTAACCTGTTGCCTAGATTTATGCAGCGGACTGCCTTTCTCCCAAAGTGATAAACCGG…AGGTTGGTTTCACT; site = the 11-nt donor
How it was run: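 Reported values are log10(CPM+1) from a pooled Escherichia coli screen of donor and donor-binding-loop pairs for the IS621 bridge recombinase. Selection used IPTG (0.07 mM) plus kanamycin, against unselected plating, each in two replicates. Recombinant UMIs were amplified across the donor–target junction, sequenced, converted to CPM, averaged over replicates and scaled by control-derived factors.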
In the case of “TTCAATTCATGGACCGGTTTTCCCGGTAATCCGTATTTGCC (site TTCAATTCTGG)”, the “recombinant UMI read abundance (log10)” value is reported as 0.
With “TTCACGCCATGGACCGGTTTTCCCGGTAATCCGTATTTGAC (site TTCACGCCTGT)” the “recombinant UMI read abundance (log10)” value was 0.
In the case of “TTCACTTCATGGACCGGTTTTCCCGGTAATCCGTATTTGTG (site TTCACTTCTCA)”, the “recombinant UMI read abundance (log10)” value is reported as 0.00654.
For “TTCAGCTCATGGACCGGTTTTCCCGGTAATCCGTATTTGTT (site TTCAGCTCTAA)”, the “recombinant UMI read abundance (log10)” value was 0.00312.
With “TTCATGACATGGACCGGTTTTCCCGGTAATCCGTATTTGCG (site TTCATGACTCG)” the “recombinant UMI read abundance (log10)” value was 0.
In the case of “TTCCCGCCATGGACCGGTTTTCCCGGTAATCCGTATTTGCT (site TTCCCGCCTAG)”, the “recombinant UMI read abundance (log10)” value is reported as 0.552.
With “TTCCTCACATGGACCGGTTTTCCCGGTAATCCGTATTTGCT (site TTCCTCACTAG)” the “recombinant UMI read abundance (log10)” value was 0.293.
With “TTCGAGACATGGACCGGTTTTCCCGGTAATCCGTATTTGCA (site TTCGAGACTTG)” the “recombinant UMI read abundance (log10)” value was 0.725.
In the case of “TTCGCCTCATGGACCGGTTTTCCCGGTAATCCGTATTTGAT (site TTCGCCTCTAT)”, the “recombinant UMI read abundance (log10)” value is reported as 0.521.
With “TTCGCGACATGGACCGGTTTTCCCGGTAATCCGTATTTGAA (site TTCGCGACTTT)” the “recombinant UMI read abundance (log10)” value was 0.0402.
With “TTCGCTTCATGGACCGGTTTTCCCGGTAATCCGTATTTGTG (site TTCGCTTCTCA)” the “recombinant UMI read abundance (log10)” value was 0.
For “TTCGGCACATGGACCGGTTTTCCCGGTAATCCGTATTTGAG (site TTCGGCACTCT)”, the “recombinant UMI read abundance (log10)” value was 0.00333.
For “TTCGGGGCATGGACCGGTTTTCCCGGTAATCCGTATTTGTC (site TTCGGGGCTGA)”, the “recombinant UMI read abundance (log10)” value was 0.
For “TTCGTCCCATGGACCGGTTTTCCCGGTAATCCGTATTTGTC (site TTCGTCCCTGA)”, the “recombinant UMI read abundance (log10)” value was 0.
With “TTCTACACATGGACCGGTTTTCCCGGTAATCCGTATTTGCT (site ATCTACACTAG)” the “recombinant UMI read abundance (log10)” value was 0.34.
For “TTCTACACATGGACCGGTTTTCCCGGTAATCCGTATTTGCT (site CTCTACACTAG)”, the “recombinant UMI read abundance (log10)” value was 1.12.
For “TTCTACACATGGACCGGTTTTCCCGGTAATCCGTATTTGCT (site GTCTACACTAG)”, the “recombinant UMI read abundance (log10)” value was 0.569.
For “TTCTACACATGGACCGGTTTTCCCGGTAATCCGTATTTGCT (site TTCTACACTAG)”, the “recombinant UMI read abundance (log10)” value was 1.16.
In the case of “TTCTAGGCATGGACCGGTTTTCCCGGTAATCCGTATTTGGT (site TACTAGGCTAC)”, the “recombinant UMI read abundance (log10)” value is reported as 0.00535.
With “TTCTAGGCATGGACCGGTTTTCCCGGTAATCCGTATTTGGT (site TCCTAGGCTAC)” the “recombinant UMI read abundance (log10)” value was 0.0191.
With “TTCTAGGCATGGACCGGTTTTCCCGGTAATCCGTATTTGGT (site TGCTAGGCTAC)” the “recombinant UMI read abundance (log10)” value was 0.0112.
In the case of “TTCTAGGCATGGACCGGTTTTCCCGGTAATCCGTATTTGGT (site TTCTAGGCTAC)”, the “recombinant UMI read abundance (log10)” value is reported as 0.0102.
For “TTCTAGTCATGGACCGGTTTTCCCGGTAATCCGTATTTGAC (site TTCTAGTCTGT)”, the “recombinant UMI read abundance (log10)” value was 0.
For “TTCTCCGCATGGACCGGTTTTCCCGGTAATCCGTATTTGAA (site TTCTCCGCTTT)”, the “recombinant UMI read abundance (log10)” value was 0.0825.
For “TTCTCCTCATGGACCGGTTTTCCCGGTAATCCGTATTTGTT (site TTCTCCTCTAA)”, the “recombinant UMI read abundance (log10)” value was 0.151.
With “TTCTCTTCATGGACCGGTTTTCCCGGTAATCCGTATTTGTG (site TTCTCTTCTCA)” the “recombinant UMI read abundance (log10)” value was 0.00971.
With “TTCTGGGCATGGACCGGTTTTCCCGGTAATCCGTATTTGCA (site TTCTGGGCTTG)” the “recombinant UMI read abundance (log10)” value was 0.345.
With “TTCTGTCCATGGACCGGTTTTCCCGGTAATCCGTATTTGCG (site TTCTGTCCTCG)” the “recombinant UMI read abundance (log10)” value was 0.00535.
For “TTCTTCCCATGGACCGGTTTTCCCGGTAATCCGTATTTGGC (site TTCTTCCCTGC)”, the “recombinant UMI read abundance (log10)” value was 0.
For “TTCTTGACATGGACCGGTTTTCCCGGTAATCCGTATTTGCT (site TACTTGACTAG)”, the “recombinant UMI read abundance (log10)” value was 0.126.
In the case of “TTCTTGACATGGACCGGTTTTCCCGGTAATCCGTATTTGCT (site TCCTTGACTAG)”, the “recombinant UMI read abundance (log10)” value is reported as 0.513.
With “TTCTTGACATGGACCGGTTTTCCCGGTAATCCGTATTTGCT (site TGCTTGACTAG)” the “recombinant UMI read abundance (log10)” value was 0.
With “TTCTTGACATGGACCGGTTTTCCCGGTAATCCGTATTTGCT (site TTCTTGACTAG)” the “recombinant UMI read abundance (log10)” value was 0.68.
For “TTGAACACATGGACCGGTTTTCCCGGTAATCCGTATTTGAC (site TTGAACACTGT)”, the “recombinant UMI read abundance (log10)” value was 0.849.
In the case of “TTGAATACATGGACCGGTTTTCCCGGTAATCCGTATTTGCA (site TAGAATACTTG)”, the “recombinant UMI read abundance (log10)” value is reported as 1.77.
With “TTGAATACATGGACCGGTTTTCCCGGTAATCCGTATTTGCA (site TCGAATACTTG)” the “recombinant UMI read abundance (log10)” value was 0.
With “TTGAATACATGGACCGGTTTTCCCGGTAATCCGTATTTGCA (site TGGAATACTTG)” the “recombinant UMI read abundance (log10)” value was 0.
In the case of “TTGAATACATGGACCGGTTTTCCCGGTAATCCGTATTTGCA (site TTGAATACTTG)”, the “recombinant UMI read abundance (log10)” value is reported as 0.467.
In the case of “TTGACAACATGGACCGGTTTTCCCGGTAATCCGTATTTGAC (site TTGACAACTGT)”, the “recombinant UMI read abundance (log10)” value is reported as 1.62.
In the case of “TTGACTCCATGGACCGGTTTTCCCGGTAATCCGTATTTGCT (site TTGACTCCTAG)”, the “recombinant UMI read abundance (log10)” value is reported as 0.111.
For “TTGAGCACATGGACCGGTTTTCCCGGTAATCCGTATTTGGA (site TTGAGCACTTC)”, the “recombinant UMI read abundance (log10)” value was 0.207.
In the case of “TTGCATGCATGGACCGGTTTTCCCGGTAATCCGTATTTGGT (site ATGCATGCTAC)”, the “recombinant UMI read abundance (log10)” value is reported as 0.00895.
With “TTGCATGCATGGACCGGTTTTCCCGGTAATCCGTATTTGGT (site CTGCATGCTAC)” the “recombinant UMI read abundance (log10)” value was 0.00328.
In the case of “TTGCATGCATGGACCGGTTTTCCCGGTAATCCGTATTTGGT (site GTGCATGCTAC)”, the “recombinant UMI read abundance (log10)” value is reported as 0.0185.
In the case of “TTGCATGCATGGACCGGTTTTCCCGGTAATCCGTATTTGGT (site TTGCATGCTAC)”, the “recombinant UMI read abundance (log10)” value is reported as 0.317.
For “TTGCGGGCATGGACCGGTTTTCCCGGTAATCCGTATTTGTC (site TTGCGGGCTGA)”, the “recombinant UMI read abundance (log10)” value was 2.15.
In the case of “TTGCTACCATGGACCGGTTTTCCCGGTAATCCGTATTTGAA (site TTGCTACCTTT)”, the “recombinant UMI read abundance (log10)” value is reported as 0.0119.
With “TTGCTCACATGGACCGGTTTTCCCGGTAATCCGTATTTGTC (site TTGCTCACTGA)” the “recombinant UMI read abundance (log10)” value was 2.25.
In the case of “TTGCTGACATGGACCGGTTTTCCCGGTAATCCGTATTTGCG (site TTGCTGACTCG)”, the “recombinant UMI read abundance (log10)” value is reported as 1.33.
In the case of “TTGCTGACATGGACCGGTTTTCCCGGTAATCCGTATTTGTG (site TTGCTGACTCA)”, the “recombinant UMI read abundance (log10)” value is reported as 0.12.
For “TTGGAAACATGGACCGGTTTTCCCGGTAATCCGTATTTGCA (site ATGGAAACTTG)”, the “recombinant UMI read abundance (log10)” value was 0.
With “TTGGAAACATGGACCGGTTTTCCCGGTAATCCGTATTTGCA (site CTGGAAACTTG)” the “recombinant UMI read abundance (log10)” value was 1.21.
In the case of “TTGGAAACATGGACCGGTTTTCCCGGTAATCCGTATTTGCA (site GTGGAAACTTG)”, the “recombinant UMI read abundance (log10)” value is reported as 0.342.
With “TTGGAAACATGGACCGGTTTTCCCGGTAATCCGTATTTGCA (site TTGGAAACTTG)” the “recombinant UMI read abundance (log10)” value was 1.86.
For “TTGGAGCCATGGACCGGTTTTCCCGGTAATCCGTATTTGAC (site TTGGAGCCTGT)”, the “recombinant UMI read abundance (log10)” value was 1.31.
For “TTGGCCACATGGACCGGTTTTCCCGGTAATCCGTATTTGGA (site TTGGCCACTTC)”, the “recombinant UMI read abundance (log10)” value was 0.146.
With “TTGGCGTCATGGACCGGTTTTCCCGGTAATCCGTATTTGTC (site TTGGCGTCTGA)” the “recombinant UMI read abundance (log10)” value was 1.13.
For “TTGGTATCATGGACCGGTTTTCCCGGTAATCCGTATTTGAC (site TTGGTATCTGT)”, the “recombinant UMI read abundance (log10)” value was 2.59.
With “TTGTACCCATGGACCGGTTTTCCCGGTAATCCGTATTTGGT (site TTGTACCCTAC)” the “recombinant UMI read abundance (log10)” value was 0.111.
In the case of “TTGTATACATGGACCGGTTTTCCCGGTAATCCGTATTTGGG (site TTGTATACTCC)”, the “recombinant UMI read abundance (log10)” value is reported as 0.00305.
In the case of “TTGTGATCATGGACCGGTTTTCCCGGTAATCCGTATTTGTG (site TTGTGATCTCA)”, the “recombinant UMI read abundance (log10)” value is reported as 1.25.
In the case of “TTGTGGACATGGACCGGTTTTCCCGGTAATCCGTATTTGTA (site TTGTGGACTTA)”, the “recombinant UMI read abundance (log10)” value is reported as 1.6.
With “TTTAAAGCATGGACCGGTTTTCCCGGTAATCCGTATTTGAC (site TTTAAAGCTGT)” the “recombinant UMI read abundance (log10)” value was 0.
In the case of “TTTAACCCATGGACCGGTTTTCCCGGTAATCCGTATTTGAA (site TTTAACCCTTT)”, the “recombinant UMI read abundance (log10)” value is reported as 0.00893.
For “TTTAACTCATGGACCGGTTTTCCCGGTAATCCGTATTTGAA (site TTTAACTCTTT)”, the “recombinant UMI read abundance (log10)” value was 0.34.
With “TTTAATACATGGACCGGTTTTCCCGGTAATCCGTATTTGAA (site TTTAATACTTT)” the “recombinant UMI read abundance (log10)” value was 0.00702.
For “TTTACGTCATGGACCGGTTTTCCCGGTAATCCGTATTTGAT (site TTTACGTCTAT)”, the “recombinant UMI read abundance (log10)” value was 0.00816.
With “TTTAGACCATGGACCGGTTTTCCCGGTAATCCGTATTTGTC (site TTTAGACCTGA)” the “recombinant UMI read abundance (log10)” value was 0.
In the case of “TTTATCCCATGGACCGGTTTTCCCGGTAATCCGTATTTGAT (site TTTATCCCTAT)”, the “recombinant UMI read abundance (log10)” value is reported as 0.263.
For “TTTCAGGCATGGACCGGTTTTCCCGGTAATCCGTATTTGAG (site TTTCAGGCTCT)”, the “recombinant UMI read abundance (log10)” value was 0.155.
In the case of “TTTCTAGCATGGACCGGTTTTCCCGGTAATCCGTATTTGGT (site TTTCTAGCTAC)”, the “recombinant UMI read abundance (log10)” value is reported as 0.0163.
For “TTTCTCACATGGACCGGTTTTCCCGGTAATCCGTATTTGCC (site TTTCTCACTGG)”, the “recombinant UMI read abundance (log10)” value was 0.843.
For “TTTCTGTCATGGACCGGTTTTCCCGGTAATCCGTATTTGTA (site TTTCTGTCTTA)”, the “recombinant UMI read abundance (log10)” value was 0.
For “TTTGAAGCATGGACCGGTTTTCCCGGTAATCCGTATTTGCG (site TTTGAAGCTCG)”, the “recombinant UMI read abundance (log10)” value was 1.11.
With “TTTGCAGCATGGACCGGTTTTCCCGGTAATCCGTATTTGCT (site TTTGCAGCTAG)” the “recombinant UMI read abundance (log10)” value was 0.00605.

Source: the supplement of paper PMC11208160
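Note: IS621 bridge recombinase in Escherichia coli cells against a fixed T5 target plasmid.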
